Test [1] addresses T1, EP2-Subtyp des humanen PGE2-Rezeptors (Homo sapiens, UniProt P43116).
T1 construct: host or cells: cells in a culture plate
In words: cAMP antagonism test (HTRF cAMP, in presence of PGE2). Type of test: cell-based. To be noted: cAMP Antagonismustest, PGE2 as agonist; read-out: Antagonismus [IC50. An excerpt:
Die Bindung von PGE2 an den EP2-Subtyp des humanen PGE2-Rezeptors induziert die Aktivierung membranständiger Adenylatzyklasen und führt zur Bildung von cAMP. In Gegenwart des Phosphodiesteraseinhibitors IBMX wird das durch diese Stimulation akkumulierte und mittels Zell-Lyse freigesetzte cAMP in einem kompetitiven Nachweisverfahren eingesetzt. In diesem Test konkurriert das cAMP im Lysat mit cAMP-XL665 um die Bindung eines Eu-Kryptat markierten Anti-cAMP Antikörpers.
Dabei entsteht in Abwesenheit von zellulärem cAMP ein maximales Signal, welches auf der Kopplung dieses Antikörpers an das cAMP-XL665 Molekül beruht. Dadurch entsteht nach Anregung bei 337 nm ein auf FRET (fluorescence resonance energy transfer) basierendes, lang anhaltendes Emissionssignal bei 665 nm (und bei […]). Beide Signale werden in einem geeigneten Messgerät zeitlich versetzt, d.h. nach Abklingen der Hintergrundsfluoreszenz gemessen. Jegliche Erhöhung des durch Prostglandin-E2-Gabe bedingten niedrigen FRET-Signals (gemessen als Well-Ratio-Veränderung = Emission665nm/Emission620nm * 10000) zeigt die Wirkung von Antagonisten.
Die in einer Testplatte und 30 % DMSO vorgelegten Substanzlösungen (0.75 µl) werden in 16 µl einer KRSB+IBMX-Stimulationslösung gelöst (1 X Krebs-Ringer Bicarbonate Buffer; Sigma-Aldrich # K-4002; inklusive 750 µM 3-Isobutyl-1-methylxanthine Sigma-Aldrich # 1-7018), anschließend werden 15 µl davon in eine medienfreie Zellkulturplatte überführt, die kurz zuvor mit KRSB gewaschen worden war.
Nach einer 30-minütigen Vorinkubation bei Raumtemperatur (RT) werden 5 µl einer 4xPGE2 Lösung (11 nM) zugegeben und in Gegenwart des Agonisten für weitere 60 min bei RT inkubiert (Volumen: ~ 20 µl), bevor die Reaktion anschlieβend durch Zugabe von 5 µl Lysispuffer gestoppt und für weitere 20 min bei RT inkubiert wird (Volumen: ~ 25 µl). Das Zell-Lysat wird anschließend in eine Messplatte überführt und entsprechend den Herstellerangaben (cyclic AMP kit Cisbio International # 62AMPPEC) gemessen.

A further test concerns Kumulus-Eizell Komplexe. In words: cumulus expansion test in vitro. It is filed as cell-based, Mäusen. The note with it: competing with PGE2. From the text: In immaturen weiblichen Mäusen (Stamm : CD1 (ICR) von Charles River) wird in einem Alter von 14 - 18 Tagen die Follikulogenese durch eine einmalige Gabe (intraperitoneal) von 10 I.E. PMSG (Pregnant Mare Serum Gonadotropine; Sigma G-4877, Lot 68H0909) induziert. 47 - 50 Stunden nach der Injektion werden die Ovarien entnommen und die Kumulus-Eizell Komplexe entnommen. Der Kumulus Komplex ist in diesem Stadium noch nicht expandiert. Die Kumulus-Eizell Komplexe werden nun für 20 - 24 Stunden mit Prostaglandin E2 (PGE2) (0,3 µM), Vehikel Kontrolle (Ethanol) oder Testsubstanzen inkubiert. Medium: alpha- MEM Medium mit 0,1 mM IBMX, Pyruvate (0,23 mM) Glutamine (2 mM), Pen/Strep 100 IU/ml Pen. und 100 µg/ml Strep.) und HSA (8 mg/ml)). Danach wird die Kumulus Expansion durch die Einteilung in vier Stadien (nach Vanderhyden et al. Dev Biol. 1990 Aug; 140(2):307-317) festgestellt. Tabelle 1: Beispiel für die biologische Wirksamkeit der erfindungsgemäßen Verbindungen (gemessen mittels cAMP Antagonismustest): […]

In test [2] the target is T1, EP2-Subtyp des humanen PGE2-Rezeptors. As to the kind of experiment: cellular cAMP agonism test. Type of test: cell-based.

Each structure is given as a SMILES string.

T1 sequence (P43116 whole entry): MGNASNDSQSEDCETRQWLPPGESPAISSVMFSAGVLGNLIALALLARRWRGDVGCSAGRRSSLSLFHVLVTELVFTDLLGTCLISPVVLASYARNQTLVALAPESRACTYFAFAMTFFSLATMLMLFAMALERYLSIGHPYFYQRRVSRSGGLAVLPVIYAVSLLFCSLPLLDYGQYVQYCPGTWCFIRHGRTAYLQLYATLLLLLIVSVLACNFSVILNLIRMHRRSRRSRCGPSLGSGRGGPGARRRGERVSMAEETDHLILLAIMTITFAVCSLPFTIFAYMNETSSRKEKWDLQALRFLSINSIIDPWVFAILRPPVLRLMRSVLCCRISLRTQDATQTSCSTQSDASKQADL

`Cc1[nH]c2c(F)ccc(C)c2c1CCNC(=O)C=Cc1ccncc1` (mixture of isomers) [Beispiel 2, (E/Z)-N-[2-(7-Fluor-2,4-dimethyl-1H-indol-3-yl)-ethyl]-3-pyridin-4-yl-acrylamid]: the IC50 in test [1] amounted to 1.5 µM.
As to `CC(C)Oc1ccc2c(=O)c3cc(C(=O)O)ccc3oc2c1` [AH 6809, reference compound], the “Unterdrückung der Kumulus Expansion” value in the test with Kumulus-Eizell Komplexe (100 - 200 µM) is reported as “ca. 30%”.
As to `Cc1[nH]c2c(F)ccc(C)c2c1CCNC(=O)/C=C/c1ccc2c(c1)OCO2` [Beispiel 1, (E)-3-Benzo[1,3]dioxol-5-yl-N-[2-(7-fluor-2,4-dimethyl-1H-indol-3-yl)-ethyl]-acrylamid], the “Unterdrückung der Kumulus Expansion” value with Kumulus-Eizell Komplexe (at a 10-fold lower concentration than AH 6809 (100 - 200 µM)) came out at 61%.
Turning to `Cc1[nH]c2c(F)ccc(C)c2c1CCNC(=O)/C=C/c1ccc(OCCN(C)C)cc1` [Beispiel 18, (E)-3-[4-(2-Dimethylamino-ethoxy)-phenyl]-N-[2-(7-fluor-2,4-dimethyl-1H-indol-3-yl)-ethyl]-acrylamid], the IC50 in test [1] is 2.2 µM.
As to `Cc1[nH]c2c(F)ccc(C)c2c1CCNC(=O)/C=C/c1cccc(S(N)(=O)=O)c1` [Beispiel 36, (E)-N-[2-(7-Fluor-2,4-dimethyl-1H-indol-3-yl)-ethyl]-3-(3-sulfamoyl-phenyl)-acrylamid], in test [2], the “Wirkung im zellulären Agonismustest” value is “keine Inhibition”. In addition, the IC50 in test [1] was 1 µM.
In the case of `Cc1[nH]c2c(F)ccc(C)c2c1CCNC(=O)/C=C/c1cncc2ccccc12` [Beispiel 47, (E)-N-[2-(7-Fluor-2,4-dimethyl-1H-indol-3-yl)-ethyl]-3-isochinolin-4-yl-acrylamid], the half-maximal inhibitory concentration (IC50) in test [1] turned out to be 1.5 µM.

The values above are taken from patent EP2003118A1, “Cinnamic acid derivatives as modulators of EP2 receptors” (Bayer Schering Pharma Aktiengesellschaft, priority 2007, dated 2008).
